Source: patent US20260285849A1, “METHYLOPHIOPOGONONE A DERIVATIVE, AND PREPARATION AND USE THEREOF” (INSTITUTE OF MATERIA MEDICA, CHINESE ACADEMY OF MEDICAL …, priority 2022, published 2026)
Where two headings read alike, the source gives them in different places.

What was measured:
[1] = tested on: Rat H9C2 cardiomyocytes; conditions: 800 μM ISO 24 h, MTT 570 nm
Experimental: (§1) Rat H9C2 cardiomyocytes in the logarithmic growth phase were seeded into 96-well plates at a density of 7×10^4 cells/mL, with 100 μL per well. […] After 24 hours of culture, the drug groups were treated with 800 μM ISO and the corresponding concentrations of drugs. The ISO model group received 800 μM ISO and an equal volume of DMSO, and the blank control group received an equal volume of DMSO. The cells were then cultured for another 24 hours. After removing the supernatant, 100 μL MTT solution (0.5 mg/mL) was added to each well and incubated in the cell culture incubator for 4 hours. After removing the supernatant, 150 μL DMSO was added to each well, mixed by shaking for 10 minutes, and the absorbance was measured at 570 nm using a microplate reader to calculate cell viability. Cell viability (%)=[(As−Ab)/(Ac−Ab)]×100%. As: Experimental well (medium with cells, MTT, ISO); Ac: Control well (medium with cells, MTT, without ISO); Ab: Blank well (medium without cells, MTT, without ISO).

[2] = tested on: Rat H9C2 cardiomyocytes; assay: cells; conditions: H9c2, 24 h, read-out: Cell survival rate
Experimental: as §1

[3] = tested on: mice with isoproterenol (ISO)-induced ischemic heart disease; assay: ISO-induced ischemic heart disease mouse model: myocardial tissue pathology (H&E); type: in vivo; conditions: for The number of animals with lesion degree + / The number of animals with lesion degree ++ / The number of animals with lesion degree +++ / The number of animals with lesion degree ++++ / The number of animals with lesion degree +++++ / The number of animals with lesion degree − / average score of myocardial tissue lesion degree: H&E; for pathological damage of myocardial tissue (H&E staining): three doses (0.1, 0.5, 2 mg/kg) by gavage
Experimental: Male C57BL/6 mice were allowed to acclimate to the environment and then randomly divided into 9 groups, namely the blank control group, the ISO model group, the ISO+diltiazem 20 mg/kg positive control drug group, the ISO+Formula I (0.1, 0.5, 2 mg/kg) groups, and the ISO+Formula II (0.1, 0.5, 2 mg/kg) groups. Mice in the drug administration groups were intragastrically administered the corresponding doses of Formula I and Formula II compounds once a day at the same time. Mice in the positive drug diltiazem group were intragastrically administered the corresponding dose of diltiazem once a day. Mice in the blank control group and the model group were given the same amount of solvent (0.5% CMC-Na). The administration volume was 10 mL/kg, and the administration was continuous for 11 days.
From the 4th to the 10th day of drug administration, ISO modeling was carried out. The blank control group was subcutaneously injected with normal saline, and mice in the other groups were subcutaneously injected with ISO at a dose of 40 mg/kg (modeling was performed 2 hours after drug administration), for a total of 7 times.
Pathological detection of myocardial tissue: After the experiment ended, the heart was washed with ice-cold physiological saline and dried with absorbent paper. It was then cut transversely into two halves. One-third of the part closer to the apex of the heart was fixed in a 4% paraformaldehyde solution. After dehydration with gradient ethanol and clearing with xylene, it was immersed in melted paraffin three times for embedding, 30 minutes each time. After embedding, continuous sections (about 4 μm thick) were made. Routine hematoxylin and eosin (H.E.) staining was performed. The pathological state of the myocardial tissue was observed under an optical microscope, photographed, and analyzed.
• −: No abnormalities were observed. • +: No myocardial tissue damage was seen. There was local hypertrophy of cardiomyocytes in the interventricular septum and papillary muscles, local edema and degeneration of cardiomyocytes, widening of the local muscle space in the lesion area, and mild non-specific inflammation in the interstitium. • ++: No obvious myocardial tissue damage (cardiomyocyte necrosis) was observed. There was local hypertrophy of cardiomyocytes in the interventricular septum and papillary muscles, local edema and degeneration of cardiomyocytes. Myofibril dissolution (disappearance of cross-striations) could be seen in local areas. The lesions were relatively limited and distributed in small foci. Non-specific inflammation was visible in the interstitium, and local fibrous tissue hyperplasia in the interstitium was noted. • +++: There was obvious hypertrophy of cardiomyocytes in the interventricular septum and papillary muscles, local edema and degeneration of cardiomyocytes. […] The lesion was limited to the subendocardium of the local interventricular septum (or papillary muscle), with a limited and small affected area. Non-specific inflammation was visible in the interstitium of the lesion area, and local fibrous tissue hyperplasia in the interstitium was noted. • ++++: The hypertrophy of cardiomyocytes in the interventricular septum and papillary muscles is remarkable. Locally, there is edema and degeneration of cardiomyocytes; there is obvious damage (necrosis of cardiomyocytes) in the myocardial tissue of the local interventricular septum and papillary muscles. The lesions are distributed in foci (or small patches), and the affected area is relatively large. […] Locally, there is edema and degeneration of cardiomyocytes; the damage (necrosis of cardiomyocytes) of the myocardial tissue of the local interventricular septum and papillary muscles is severe. The damage (necrosis) lesions are distributed in patches and are connected to each other. Transmural myocardial tissue damage of the interventricular septum and papillary muscles can be seen locally.

[4] = tested on: Rat H9C2 cardiomyocytes; assay: cells; conditions: H9c2, 24 h, read-out: Cell viability
Experimental: Rat H9C2 cardiomyocytes in the logarithmic growth phase were seeded at a density of 7×10^4 cells/mL into 96-well plates, with 100 μL per well. […] After 24 hours of culture, the drug treatment groups were respectively added with 50 μM Ang II and the corresponding concentration of the drug. The Ang II model group was added with 50 μM Ang II and an equal volume of DMSO, and the blank control group was added with an equal volume of DMSO. Then, the cells were cultured for another 24 hours. After removing the supernatant, 100 μL of MTT solution (0.5 mg/mL) was added to each well, and the plates were placed in an incubator for 4 hours. After removing the supernatant again, 150 μL of DMSO was added to each well, and the mixture was shaken and mixed evenly for 10 minutes. The absorbance was measured at 570 nm using a microplate reader to calculate the cell viability.
Cell viability (%)=[(As−Ab)/(Ac−Ab)]×100% • As: Experimental well (culture medium containing cells, MTT, Ang II); • Ac: Control well (culture medium containing cells, MTT, without Ang II); • Ab: Blank well (culture medium without cells, MTT, without Ang II).

SMILES	OD ([1]; 0.1 μM)	OD ([1]; 0.3 μM)	OD ([1]; 1 μM)	OD ([1]; 3 μM)	OD ([1]; 5 μM)	OD ([1]; 10 μM)	viability at 0.1 µM [2] [%]	viability at 0.3 µM [2] [%]	viability at 1 µM [2] [%]	viability at 3 µM [2] [%]	viability at 5 µM [2] [%]	viability at 10 µM [2] [%]	The number of animals with lesion degree + ([3]; 0.1 mg/kg)	The number of animals with lesion degree ++ ([3]; 0.1 mg/kg)	The number of animals with lesion degree +++ ([3]; 0.1 mg/kg)	The number of animals with lesion degree ++++ ([3]; 0.1 mg/kg)	The number of animals with lesion degree +++++ ([3]; 0.1 mg/kg)	The number of animals with lesion degree − ([3]; 0.1 mg/kg)	average score of myocardial tissue lesion degree ([3]; 0.1 mg/kg)	The number of animals with lesion degree + ([3]; 0.5 mg/kg)	also measured
Cc1c(O)cc(O)c2c(=O)c(Cc3ccc4c(c3)OCO4)coc12 [Formula II, 3-(benzo[d][1,3]dioxol-5-ylmethyl)-5,7-dihydroxy-8-methyl-4H-chromen-4-one]	0.964 ± 0.132	0.964 ± 0.031	0.904 ± 0.072^###&&	0.963 ± 0.064	0.784 ± 0.067	0.806 ± 0.067	79.8	79.8	74.8	79.6	64.9	66.7	2	4	4	0	0	0	2.20 ± 0.79	3	The number of animals with lesion degree ++ ([3]; 0.5 mg/kg): 4; The number of animals with lesion degree +++ ([3]; 0.5 mg/kg): 3; The number of animals with lesion degree ++++ ([3]; 0.5 mg/kg): 0; The number of animals with lesion degree +++++ ([3]; 0.5 mg/kg): 0; The number of animals with lesion degree − ([3]; 0.5 mg/kg): 0; average score of myocardial tissue lesion degree ([3]; 0.5 mg/kg): 2.00 ± 0.82; The number of animals with lesion degree + ([3]; 2 mg/kg): 6; The number of animals with lesion degree ++ ([3]; 2 mg/kg): 1; The number of animals with lesion degree +++ ([3]; 2 mg/kg): 0; The number of animals with lesion degree ++++ ([3]; 2 mg/kg): 0; The number of animals with lesion degree +++++ ([3]; 2 mg/kg): 0; The number of animals with lesion degree − ([3]; 2 mg/kg): 4; average score of myocardial tissue lesion degree ([3]; 2 mg/kg): 0.73 ± 0.65; pathological damage of myocardial tissue (H&E staining) [3]: significantly improve the pathological damage of myocardial tissue; viability at 0.1 µM [4]: 81.4%; viability at 0.3 µM [4]: 73.5%; viability at 1 µM [4]: 77.6%; viability at 3 µM [4]: 73%; viability at 10 µM [4]: 75.6%
O=c1c(Cc2ccc3c(c2)OCO3)coc2cc(O)cc(O)c12 [Formula I]	0.983 ± 0.144	0.929 ± 0.105	0.969 ± 0.065^###&&	0.926 ± 0.045	0.807 ± 0.088	0.839 ± 0.091^###&	81.3	76.8	74	76.6	66.7	69.4	0	2	5	2	0	0	3.00 ± 0.71	2	The number of animals with lesion degree ++ ([3]; 0.5 mg/kg): 4; The number of animals with lesion degree +++ ([3]; 0.5 mg/kg): 4; The number of animals with lesion degree ++++ ([3]; 0.5 mg/kg): 0; The number of animals with lesion degree +++++ ([3]; 0.5 mg/kg): 0; The number of animals with lesion degree − ([3]; 0.5 mg/kg): 0; average score of myocardial tissue lesion degree ([3]; 0.5 mg/kg): 2.20 ± 0.79; The number of animals with lesion degree + ([3]; 2 mg/kg): 6; The number of animals with lesion degree ++ ([3]; 2 mg/kg): 3; The number of animals with lesion degree +++ ([3]; 2 mg/kg): 0; The number of animals with lesion degree ++++ ([3]; 2 mg/kg): 0; The number of animals with lesion degree +++++ ([3]; 2 mg/kg): 0; The number of animals with lesion degree − ([3]; 2 mg/kg): 1; average score of myocardial tissue lesion degree ([3]; 2 mg/kg): 1.20 ± 0.63; pathological damage of myocardial tissue (H&E staining) [3]: significantly improve the pathological damage of myocardial tissue; viability at 0.1 µM [4]: 75.1%; viability at 0.3 µM [4]: 72.5%; viability at 1 µM [4]: 73.5%; viability at 3 µM [4]: 75.9%; viability at 10 µM [4]: 76.4%
